Columns and labels:
[1] = biological target: Ba/F3 EGFR WT (Homo sapiens, UniProt P00533); test: Cell proliferation experiment (CellTiter Glo, 72 hours); type: cell-based; settings: read-out: BaF3 EGFR WT IC50
Summary of the method: (§1)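 Ba/F3 cells overexpressing EGFR Δ19del/T790M/C797S or EGFR WT were seeded at 2000 or 3000 cells/well and exposed 72 h to 9 compound concentrations (3-fold, top 10000 or 1111 nM final, 0.1% DMSO). CellTiter-Glo luminescence gave survival inhibition versus controls; IC50 from nonlinear fit.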

[2] = biological target: Ba/F3-Δ19del/T790M/C797S (Homo sapiens, UniProt P00533, T790M/C797S, cells depend on it, form not given); test: as above; type: cell-based; settings: read-out: Ba/F3/EGFR Δ19del/T790M/C797S IC50
Sequence of Ba/F3-Δ19del/T790M/C797S (P00533 with tags, fused parts or gaps DEL746-750/T790M/C797S, form open): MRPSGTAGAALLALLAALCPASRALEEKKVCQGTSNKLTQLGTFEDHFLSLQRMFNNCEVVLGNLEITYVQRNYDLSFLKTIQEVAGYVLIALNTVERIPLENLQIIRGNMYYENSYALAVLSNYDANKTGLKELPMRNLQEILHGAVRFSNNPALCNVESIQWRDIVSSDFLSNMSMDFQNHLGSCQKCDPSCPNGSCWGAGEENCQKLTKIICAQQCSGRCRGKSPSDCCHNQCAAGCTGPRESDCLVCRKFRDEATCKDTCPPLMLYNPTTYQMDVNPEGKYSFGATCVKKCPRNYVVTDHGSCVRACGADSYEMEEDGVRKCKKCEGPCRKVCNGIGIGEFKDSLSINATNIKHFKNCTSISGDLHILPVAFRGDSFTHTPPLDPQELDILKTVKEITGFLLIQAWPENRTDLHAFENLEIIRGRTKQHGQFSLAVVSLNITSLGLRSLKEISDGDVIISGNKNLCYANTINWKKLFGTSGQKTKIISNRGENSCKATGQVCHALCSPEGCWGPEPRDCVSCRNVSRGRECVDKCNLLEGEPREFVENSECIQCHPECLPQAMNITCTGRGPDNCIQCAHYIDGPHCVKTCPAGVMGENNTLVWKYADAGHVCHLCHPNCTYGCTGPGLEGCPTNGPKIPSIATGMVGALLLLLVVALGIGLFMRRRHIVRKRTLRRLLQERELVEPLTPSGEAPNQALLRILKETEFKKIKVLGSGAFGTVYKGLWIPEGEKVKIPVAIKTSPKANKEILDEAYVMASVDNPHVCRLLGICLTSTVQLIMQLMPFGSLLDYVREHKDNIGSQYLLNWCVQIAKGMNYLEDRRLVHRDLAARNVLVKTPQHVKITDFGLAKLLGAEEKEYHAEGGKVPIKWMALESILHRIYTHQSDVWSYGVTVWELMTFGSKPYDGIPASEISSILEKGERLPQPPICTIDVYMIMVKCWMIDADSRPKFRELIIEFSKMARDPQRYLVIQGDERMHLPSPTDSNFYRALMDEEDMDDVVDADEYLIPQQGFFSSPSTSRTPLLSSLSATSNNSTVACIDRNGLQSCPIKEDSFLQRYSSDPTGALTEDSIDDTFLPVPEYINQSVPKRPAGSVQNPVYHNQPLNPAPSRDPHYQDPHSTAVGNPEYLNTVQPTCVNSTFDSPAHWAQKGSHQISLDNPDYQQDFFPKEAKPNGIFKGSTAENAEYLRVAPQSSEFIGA
Summary of the method: as §1

[3] = test system: human epidermal cancer cells A431 carrying EGFR WT; test: as above; type: cell-based; settings: Homo sapiens, A-431
Summary of the method: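 Cells seeded at 2000 or 3000/well and exposed 72 h to 9-point 3-fold dilutions, top final 10000 nM or 1111 nM, 0.1% DMSO. Viability by CellTiter-Glo luminescence. Inhibition relative to cell and medium controls; IC50 by four-parameter nonlinear regression.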

[4] = biological target: IGF1R (Homo sapiens, UniProt P08069); test: Kinase inhibition assay (mobility shift); type: biochemical
Experimental: (§2) Experiment 1 Kinase Inhibition Assay Mobility shift assays were performed to determine inhibitory activity of compounds against EGFR^Δ19del/T790M/C797S, EGFR WT and IGF1R kinases. The enzymatic reaction scheme is as follows:
(§3) 1. Preparing 1*Kinase Buffer as follows:
(§4) 2. Preparing compound concentration gradient: the initial concentration of the compound tested in the assay was 3,000 nM or 100 nM, which is then diluted to be 100-fold final concentration in 100% DMSO in a 384-source plate. Compounds in 10 concentrations were diluted in a 3-fold gradient with Precision. 250 nL of compound in 100-fold final concentration was transferred to OptiPlate-384F plate by using a dispenser named Echo 550.
(§5) 3. Preparing kinase solution at 2.5-fold the final concentration with 1×kinase buffer.
(§6) 4. Adding 10 μL of kinase solution at 2.5-fold the final concentration to compound wells and positive control wells respectively; and adding 10 μL of 1×kinase buffer to negative control wells.
(§7) 5. Centrifuging the wells at 1,000 rpm for 30 seconds, mixing the reaction plate well by shaking and incubating it at room temperature for 10 minutes.
(§8) 6. Preparing a mixed solution of ATP and kinase substrate at 5-fold/3-fold the final concentration with 1×Kinase buffer, respectively.
(§9) 7. Initiating the reaction by adding 15 μL of the mixed solution of ATP and kinase substrate at 5-fold/3-fold the final concentration.
(§10) 8. Centrifuging the 384-well plate at 1,000 rpm for 30 seconds, mixing the reaction plate well by shaking and incubating it at room temperature for a corresponding time.
(§11) 9. Adding 30 μL of assay stop solution to stop the kinase reaction, and centrifuging the plate at 1,000 rpm for 30 seconds and mixing it well by shaking.
(§12) 10. Reading the conversion rate with Caliper EZ Reader.
(§13) [formula] • wherein, “Conversion % sample” is the conversion rate reading of the sample;
(§14) “Conversion %_min” is the mean value of the negative control wells, representing the conversion rate readings of the well without enzymatic activity; “Conversion %_max” is the mean value of the positive control wells, representing the conversion rate readings of the wells without compound inhibition. • Dose-response curve is plotted with the logarithmic concentration on the X-axis and percent inhibition on the Y-axis. The fitting of the dose-response curve is made with the module “log(inhibitor) vs. response—Variable slope” of the analysis software GraphPad Prism 5, so that the IC50 value of each compound on enzymatic activity is obtained. • The calculation formula is: Y=Bottom+(Top−Bottom)/(1+10^((Log IC50−X)*HillSlope)).

[5] = biological target: EGFR WT (Homo sapiens, UniProt P00533); test: Kinase inhibition assay (mobility shift); type: biochemical
Sequence of EGFR WT (P00533 25-1210): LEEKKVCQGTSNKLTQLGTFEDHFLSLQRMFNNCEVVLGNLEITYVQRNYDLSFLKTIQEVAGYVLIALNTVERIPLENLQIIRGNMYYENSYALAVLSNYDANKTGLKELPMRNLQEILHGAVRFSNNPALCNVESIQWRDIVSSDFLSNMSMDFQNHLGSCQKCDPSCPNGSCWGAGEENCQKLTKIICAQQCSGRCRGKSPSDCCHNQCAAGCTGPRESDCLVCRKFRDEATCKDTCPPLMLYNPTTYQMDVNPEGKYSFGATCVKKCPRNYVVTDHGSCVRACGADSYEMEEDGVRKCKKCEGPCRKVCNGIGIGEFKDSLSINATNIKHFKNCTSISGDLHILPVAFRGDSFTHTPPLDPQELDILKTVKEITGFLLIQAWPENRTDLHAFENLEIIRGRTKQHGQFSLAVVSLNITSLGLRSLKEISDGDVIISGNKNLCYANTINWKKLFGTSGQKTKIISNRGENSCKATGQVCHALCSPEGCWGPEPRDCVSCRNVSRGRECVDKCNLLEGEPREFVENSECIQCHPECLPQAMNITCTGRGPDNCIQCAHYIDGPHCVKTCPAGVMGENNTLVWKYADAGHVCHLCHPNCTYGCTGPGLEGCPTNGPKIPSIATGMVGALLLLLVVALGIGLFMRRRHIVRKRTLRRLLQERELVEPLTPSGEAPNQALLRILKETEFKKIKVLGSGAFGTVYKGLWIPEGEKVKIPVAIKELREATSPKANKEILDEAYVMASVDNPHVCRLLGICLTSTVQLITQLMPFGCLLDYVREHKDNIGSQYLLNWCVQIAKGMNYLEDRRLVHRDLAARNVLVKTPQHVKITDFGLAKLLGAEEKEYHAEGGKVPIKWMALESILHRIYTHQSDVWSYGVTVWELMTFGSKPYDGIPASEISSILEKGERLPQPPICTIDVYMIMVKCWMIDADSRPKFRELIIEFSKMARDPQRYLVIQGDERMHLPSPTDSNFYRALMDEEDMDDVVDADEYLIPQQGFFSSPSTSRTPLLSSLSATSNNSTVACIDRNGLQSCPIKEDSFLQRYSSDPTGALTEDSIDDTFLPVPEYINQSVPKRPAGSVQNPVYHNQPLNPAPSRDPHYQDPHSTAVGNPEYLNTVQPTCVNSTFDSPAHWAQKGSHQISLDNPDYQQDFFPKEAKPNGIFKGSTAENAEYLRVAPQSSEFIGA
Experimental: as §2, §3, §4, §5, §6, §7, §8, §9, §10, §11, §12, §13, §14

[6] = biological target: EGFR Δ19del/T790M/C797S (Homo sapiens, UniProt P00533, T790M/C797S, form not given); test: Kinase inhibition assay (mobility shift); type: biochemical
Sequence of EGFR Δ19del/T790M/C797S (P00533 with tags, fused parts or gaps DEL746-750/T790M/C797S, form open): as the sequence (P00533 with tags, fused parts or gaps DEL746-750/T790M/C797S, form open) above
Experimental: as §2, §3, §4, §5, §6, §7, §8, §9, §10, §11, §12, §13, §14

Sequence of Ba/F3 EGFR WT (P00533 whole entry, stated change not applied): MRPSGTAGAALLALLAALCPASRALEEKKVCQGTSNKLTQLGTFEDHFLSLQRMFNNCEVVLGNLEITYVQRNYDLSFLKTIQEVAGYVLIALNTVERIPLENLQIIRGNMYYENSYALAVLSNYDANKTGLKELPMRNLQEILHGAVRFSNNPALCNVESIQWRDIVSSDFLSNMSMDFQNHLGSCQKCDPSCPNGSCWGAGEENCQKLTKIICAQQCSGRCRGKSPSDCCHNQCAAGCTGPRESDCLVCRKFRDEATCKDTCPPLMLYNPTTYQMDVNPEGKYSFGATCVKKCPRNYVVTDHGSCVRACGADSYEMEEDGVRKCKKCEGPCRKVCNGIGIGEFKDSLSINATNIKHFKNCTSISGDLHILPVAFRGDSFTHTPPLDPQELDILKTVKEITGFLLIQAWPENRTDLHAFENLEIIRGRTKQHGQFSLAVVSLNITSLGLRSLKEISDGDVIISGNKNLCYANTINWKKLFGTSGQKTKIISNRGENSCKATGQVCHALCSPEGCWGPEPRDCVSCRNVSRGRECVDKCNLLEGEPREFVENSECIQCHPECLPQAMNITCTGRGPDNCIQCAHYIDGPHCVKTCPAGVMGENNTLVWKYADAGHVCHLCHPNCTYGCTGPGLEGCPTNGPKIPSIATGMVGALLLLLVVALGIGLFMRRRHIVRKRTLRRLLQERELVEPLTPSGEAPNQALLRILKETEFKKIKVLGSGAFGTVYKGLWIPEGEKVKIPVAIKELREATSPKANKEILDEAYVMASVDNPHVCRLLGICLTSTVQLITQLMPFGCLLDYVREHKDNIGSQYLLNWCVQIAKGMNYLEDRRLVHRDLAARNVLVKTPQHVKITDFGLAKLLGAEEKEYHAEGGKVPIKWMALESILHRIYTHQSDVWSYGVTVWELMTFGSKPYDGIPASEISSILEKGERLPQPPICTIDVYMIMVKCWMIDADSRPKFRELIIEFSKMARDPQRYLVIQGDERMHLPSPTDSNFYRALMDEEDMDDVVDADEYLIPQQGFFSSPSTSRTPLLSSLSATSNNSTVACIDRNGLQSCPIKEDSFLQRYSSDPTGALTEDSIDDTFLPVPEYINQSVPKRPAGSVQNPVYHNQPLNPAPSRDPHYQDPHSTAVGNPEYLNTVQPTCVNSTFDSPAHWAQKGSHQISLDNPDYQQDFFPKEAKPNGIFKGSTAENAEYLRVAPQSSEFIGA

GI50 [1] [nM] | GI50 [2] [nM] | IC50 [3] [nM] | IC50 [4] [nM] | IC50 [5] [nM] | IC50 [6] [nM] | SMILES
108 | 6 | 514 | 58 | 4.7 | 0.19 | C#Cc1ccc2c(P(C)(C)=O)c(Nc3nc(Nc4cc(CC)c(N5CCC(N6CCN(C)CC6)CC5)cc4OC)ncc3Br)ccc2n1 [Compound J-014, (6-((5-Bromo-2-((5-ethyl-2-methoxy-4-(4-(4-methylpiperazin-1-yl)piperidin-1-yl)phenyl)amino)pyrimidin-4-yl)amino)-2-ethynylquinolin-5-yl)dimethylphosphine oxide]
388 | 15.8 | 678 | 12.1 | 12.1 | 0.29 | C#Cc1ccc2c(P(C)(C)=O)c(Nc3nc(Nc4cc(OC)c(N5CCC(N6CCN(C)CC6)CC5)cc4C)ncc3Br)ccc2n1 [Compound J-015, (6-((5-Bromo-2-((5-methoxy-2-methyl-4-(4-(4-methylpiperazin-1-yl)piperidin-1-yl)phenyl)amino)pyrimidin-4-yl)amino)-2-ethynylquinolin-5-yl)dimethylphosphine oxide]
132 | 5.1 | 379 | 16.8 | 4.6 | 0.3 | CCc1cc(Nc2ncc(Br)c(Nc3ccc4nc(C#N)ccc4c3P(C)(C)=O)n2)c(OC)cc1N1CCC(N2CCN(C)CC2)CC1 [Compound J-016, 6-((5-Bromo-2-((5-ethyl-2-methoxy-4-(4-(4-methylpiperazin-1-yl)piperidin-1-yl)phenyl)amino)pyrimidin-4-yl)amino)-5-(dimethylphosphineoxide)quinoline-2-formonitrile]
160 | 1.9 | 1500 | 178 | 7.3 | 0.3 | CCc1cc(Nc2ncc(Br)c(Nc3ccc4nc(C5CC5)ccc4c3P(C)(C)=O)n2)c(OC)cc1N1CCC(N2CCN(C)CC2)CC1 [Compound J-018, (6-((5-Bromo-2-((5-ethyl-2-methoxy-4-(4-(4-methylpiperazin-1-yl)piperidin-1-yl)phenyl)amino)pyrimidin-4-yl)amino)-2-cyclopropylquinolin-5-yl)dimethylphosphine oxide]
144 | 2.2 | 983 | 107 | 21 | 0.72 | COc1cc(N2CCC(N3CCN(C)CC3)CC2)c(OC)cc1Nc1ncc(Br)c(Nc2ccc3nc(C4CC4)ccc3c2P(C)(C)=O)n1 [Compound J-020, (6-((5-Bromo-2-((2,5-dimethoxy-4-(4-(4-methylpiperazin-1-yl)piperidin-1-yl)phenyl)amino)pyrimidin-4-yl)amino)-2-cyclopropylquinolin-5-yl)dimethylphosphine oxide]
238 | 11.7 | 1140 | 293 | 19.3 | 0.3 | COc1cc(N2CCC(N3CCN(C)CC3)CC2)c(C#N)cc1Nc1ncc(Br)c(Nc2ccc3nc(C4CC4)ccc3c2P(C)(C)=O)n1 [Compound J-021, 5-((5-Bromo-4-((2-cyclopropyl-5-(dimethylphosphineoxide)quinolin-6-yl)amino)pyrimidin-2-yl)amino)-4-methoxy-2-(4-(4-methylpiperazin-1-yl)piperidin-1-yl)benzonitrile]
117 | 6.4 | 877 | 27 | 17 | 0.28 | COc1cc(Nc2ncc(Br)c(Nc3ccc4nc(C5CC5)ccc4c3P(C)(C)=O)n2)c(C)cc1N1CCC(N2CCN(C)CC2)CC1 [Compound J-023, (6-((5-Bromo-2-((5-methoxy-2-methyl-4-(4-(4-methylpiperazin-1-yl)piperidin-J-yl)phenyl)amino)pyrimidin-4-yl)amino)-2-cyclopropylquinolin-5-yl)dimethylphosphine oxide]
373 | 26.7 | 1380 | 140 | 114 | 0.5 | COc1cc(Nc2ncc(Br)c(Nc3ccc4nc(C5CC5)ccc4c3P(C)(C)=O)n2)c(C2CC2)cc1N1CCC(N2CCN(C)CC2)CC1 [Compound J-024, (6-((5-Bromo-2-((2-cyclopropyl-5-methoxy-4-(4-(4-methylpiperazin-1-yl)piperidin-1-yl)phenyl)amino)pyrimidin-4-yl)amino)-2-cyclopropylquinolin-5-yl)dimethylphosphine oxide]
52 | 1.4 | 9010 | 61.6 | 11.1 | 0.3 | CCc1cc(Nc2ncc(Br)c(Nc3ccc4nc(C5CC5)ccc4c3P(C)(C)=O)n2)c(C)cc1N1CCC(N2CCN(C)CC2)CC1 [Compound J-027, (6-((5-Bromo-2-((5-ethyl-2-methyl-4-(4-(4-methylpiperazin-1-yl)piperidin-1-yl)phenyl)amino)pyrimidin-4-yl)amino)-2-cyclopropylquinolin-5-yl)dimethylphosphine oxide]
155 | 20.8 | 842 | 116 | 19 | 0.14 | CCc1ccc2c(P(C)(C)=O)c(Nc3nc(Nc4cc(C)c(N5CCC(N6CCN(C)CC6)CC5)cc4OC)ncc3Br)ccc2n1 [Compound J-028, (6-((5-Bromo-2-((2-methoxy-5-methyl-4-(4-(4-methylpiperazin-1-yl)piperidin-1-yl)phenyl)amino)pyrimidin-4-yl)amino)-2-ethylquinolin-5-yl)dimethylphosphine oxide]
98.5 | 12.1 | 204 | 58.1 | 41.3 | 0.22 | COc1cc(Nc2ncc(Br)c(Nc3ccc4nc(C5CC5)ccc4c3P(C)(C)=O)n2)cc(C)c1N1CCC(N2CCN(C)CC2)CC1 [Compound J-029, (6-((5-Bromo-2-((3-methoxy-5-methyl-4-(4-(4-methylpiperazin-1-yl)piperidin-1-yl)phenyl)amino)pyrimidin-4-yl)amino)-2-cyclopropylquinolin-5-yl)dimethylphosphine oxide]
189 | 5.8 | 440 | 298 | 23 | 0.12 | COc1cc(N2CCC(N3CCN(C)CC3)CC2)c(C)cc1Nc1ncc(Br)c(Nc2ccc3nc(C(C)C)ccc3c2P(C)(C)=O)n1 [Compound J-034, (6-((5-Bromo-2-((2-methoxy-5-methyl-4-(4-(4-methylpiperazin-1-yl)piperidin-1-yl)phenyl)amino)pyrimidin-4-yl)amino)-2-isopropylquinolin-5-yl)dimethylphosphine oxide]
256 | 12 | 1110 | 21.5 | 33.5 | 0.5 | COc1cc(Nc2ncc(Br)c(Nc3ccc4nc(C5CC5)ccc4c3P(C)(C)=O)n2)c(C)cc1N1CCN(C2CCCC2)CC1 [Compound J-039, (6-((5-Bromo-2-((4-(4-cyclopentylpiperazin-1-yl)-5-methoxy-2-methylphenyl)amino)pyrimidin-4-yl)amino)-2-cyclopropylquinolin-5-yl)dimethylphosphine oxide]
